This passage reports EC50 and CC50 results from ChEMBL document CHEMBL1156829 (Proc Natl Acad Sci U S A, 2008).

Data set [1] concerns Plasmodium falciparum. Briefly: NOVARTIS: Inhibition of Plasmodium falciparum 3D7 (drug-susceptible) proliferation in erythrocyte-based infection assay. The settings on record: Plasmodium falciparum, 3D7. In kind it is functional, organism-based.
Data set [2] has as its system Plasmodium falciparum. As to the kind of experiment: NOVARTIS: Inhibition of Plasmodium falciparum W2 (drug-resistant) proliferation in erythrocyte-based infection assay. In kind it is functional, organism-based. To be noted: Plasmodium falciparum, W2; read-out: EC50.
The nature of data set [3]: NOVARTIS: Cytotoxicity against human hepatocellular carcinoma cell line (Huh7). Type of data set: toxicity, cell-based, Huh-7. The settings on record: Huh7 cells (hepatocellular carcinoma cell line).

Turning to `O=C1/C(=N\c2cccc(O)c2)C(N2CCCCC2)=C(O)c2ccccc21`, the 50% effective concentration (EC50) is 212 nM in the data set on Plasmodium falciparum [1] and 227 nM with Plasmodium falciparum [2]. The molecule further yielded a CC50 in data set [3] above 100000 nM.
As for `CN(C)c1ccc2c(c1)Sc1cc(N(C)C)ccc1N2C(=O)c1ccccc1`, the EC50 was determined as 218 nM in the data set with Plasmodium falciparum [1] and 232 nM in the data set on Plasmodium falciparum [2]. In addition, the CC50 in data set [3] is above 100000 nM.
For `CC(=O)OCC(=O)[C@@]1(O)CCC2C3CCC4=CC(=O)CC[C@]4(C)C3[C@@H](O)C[C@@]21C` (stereo not given in full), the figures for the concentration giving a half-maximal response (EC50) in the data set with Plasmodium falciparum [1] and in the data set on Plasmodium falciparum [2] were above 1250 nM and below 23 nM, respectively. In data set [3], the CC50 was above 10000 nM.
For `Cc1nn(CC(O)Cn2c3ccc(Br)cc3c3cc(Br)ccc32)c(C)c1Br` (stereo not given), in that order: 769 nM, 177 nM and 75200 nM.
For `CS(=O)(=O)N1CCCCC1C(=O)NCc1ccc(OC2CCN(CC(c3ccccc3)c3ccccc3)CC2)cc1` (stereo not given), in that order: 1020 nM, 22.9 nM and above 10000 nM.
For `c1ccc2cc3c(N4CCN(CCN5CCN(c6ccnc7cc8ccccc8cc67)CC5)CC4)ccnc3cc2c1`, in that order: 176 nM, 228 nM and above 100000 nM.
For the molecule `CSc1nc2nc(C)c(Cc3cccc(C(F)(F)F)c3)c(C)n2n1`, the half-maximal effective concentration (EC50) in the data set on Plasmodium falciparum [1] came out at 270 nM; in the data set on Plasmodium falciparum [2], 224 nM. This molecule also registered a CC50 in data set [3] above 100000 nM.
In the case of `CSc1ccc(C=CC(=O)NC(=O)c2ccccc2O)cc1`, the EC50 in the data set on Plasmodium falciparum [1] was found to be 243 nM; in the data set on Plasmodium falciparum [2] it was 225 nM. For the same molecule, in data set [3], the CC50 is above 100000 nM.
For `Clc1ccc(-c2c[n+](-c3ccccc3)c3n2CCS3)cc1`, in that order: 308 nM, 236 nM and above 100000 nM.
In the case of `Cc1ccc(NC(=O)N(CCCN(C)C)Cc2cc3cc4c(cc3[nH]c2=O)OCO4)cc1`, the EC50 stood at 1300 nM with Plasmodium falciparum [1] and 236 nM with Plasmodium falciparum [2]. Moreover, in data set [3], the CC50 was above 100000 nM.
For `Cc1cc(NCCc2ccccc2)nc2cc(O)ccc12`, in that order: 377 nM, 69.5 nM and 29500 nM.
With `CCc1c(C)c(C#N)c2nc3ccccc3n2c1Nc1ccc(C)c(Cl)c1`, the EC50 in the data set on Plasmodium falciparum [1] was found to be 1090 nM; in the data set with Plasmodium falciparum [2], 233 nM. The molecule further returned a CC50 in data set [3] above 100000 nM.
As for `CC(=O)c1ccc(N2CCN(Cc3cc(-c4ccnc5cc(Cl)ccc45)ccc3O)CC2)cc1`, the half-maximal effective concentration (EC50) in the data set on Plasmodium falciparum [1] is 2810 nM; in the data set on Plasmodium falciparum [2] it was 228 nM. For the same molecule, in data set [3], the half-maximal cytotoxic concentration (CC50) is above 100000 nM.
For `CCc1cc2c3c(c1)C1(C(=O)N3C(C)(C)CC2C)C(C#N)=C(N)Oc2cc(C)oc(=O)c21` (stereo not given), in that order: 1470 nM, 228 nM and above 100000 nM.
For `C=CCSc1nc2sc3c(c2c(=O)n1-c1ccccc1)CCN(C)C3`, in that order: 632 nM, 228 nM and above 100000 nM.
For `O=C(c1cc2cc(Br)ccc2o1)N1CCc2c([nH]c3ccccc23)C1c1ccc(Cl)cc1` (stereo not given), in that order: 887 nM, 226 nM and above 100000 nM.
In the case of `CCOC(=O)C1=C(C)NC2=C(C(=O)C(C(=O)OCC)C(c3ccc(OC)cc3)C2)C1c1ccc(OC)c(OC)c1` (stereo not given), the EC50 with Plasmodium falciparum [1] worked out at 275 nM; in the data set with Plasmodium falciparum [2] it was 178 nM. The CC50 in data set [3] is above 76600 nM.
As for `CC1CN(C(=O)c2sc3cccc(F)c3c2Cl)CC(C)O1` (stereo not given), the 50% effective concentration (EC50) with Plasmodium falciparum [1] worked out at 299 nM; in the data set on Plasmodium falciparum [2] it was 232 nM. For the same molecule, the CC50 in data set [3] is above 100000 nM.
For `CN1CCN(c2ccc(Nc3ccnc4cc(Cl)ccc34)cc2Cl)CC1`, in that order: 35.8 nM, 54.7 nM and above 23700 nM.
For `Cc1ccc(S(=O)(=O)NCCCCNc2ccnc3cc(Cl)ccc23)cc1`, in that order: 575 nM, below 20.4 nM and above 9020 nM.
For `O=C(Nc1ccc(-c2ccc(Cl)cc2)cc1)c1cccs1`, in that order: 285 nM, 225 nM and above 100000 nM.
For the molecule `OCC1CCCCN1Cc1cc(-c2ccccc2)ccc1O` (stereo not given), the EC50 is 1030 nM with Plasmodium falciparum [1] and below 23.2 nM in the data set on Plasmodium falciparum [2]. The CC50 in data set [3] was above 10000 nM.
In the case of `COc1ccc(OC)c(-c2ccc(O)c(CNCCc3ccc(F)cc3)c2)c1`, the results for the EC50 with Plasmodium falciparum [1] and with Plasmodium falciparum [2] were 1050 nM and below 23.2 nM, respectively. Besides, the half-maximal cytotoxic concentration (CC50) in data set [3] is above 10000 nM.
Turning to `C[n+]1ccccc1C=Cc1ccc(Br)cc1`, the values for the EC50 in the data set with Plasmodium falciparum [1] and in the data set with Plasmodium falciparum [2] were 352 nM and 221 nM, respectively. The half-maximal cytotoxic concentration (CC50) in data set [3] is 95200 nM.
For `COc1cccc(-c2ccc(O)c(CN3CCC(Cc4ccccc4)CC3)c2)n1`, in that order: 306 nM, 86.1 nM and 38400 nM.
In the case of `O=C(Cc1ccsc1)N1CCOc2c(cc(-c3csc4ccccc34)cc2OCCc2ccccn2)C1`, the EC50 stood at 379 nM in the data set with Plasmodium falciparum [1] and 223 nM with Plasmodium falciparum [2]. In data set [3], the CC50 was above 100000 nM.
Take `c1cncc(CCNc2nccn3c(-c4ccc5ccccc5c4)cnc23)c1`: the values for the concentration giving a half-maximal response (EC50) in the data set on Plasmodium falciparum [1] and in the data set on Plasmodium falciparum [2] were 115 nM and 81.2 nM, respectively. Moreover, in data set [3], it took 34400 nM to reach half-maximal cytotoxicity (CC50).
For `CCOC(=O)c1nnn(-c2nonc2N)c1-c1ccc(Br)cc1`, in that order: 287 nM, 230 nM and above 100000 nM.
For the molecule `CCOc1ccccc1-n1c(N)c(C(=O)Nc2ccc(F)cc2)sc1=S`, the EC50 is 968 nM with Plasmodium falciparum [1] and 230 nM in the data set with Plasmodium falciparum [2]. For the same molecule, the half-maximal cytotoxic concentration (CC50) in data set [3] is above 100000 nM.
As to `COc1ccc2nc3cc(Cl)ccc3c(NCCCN(CCCN)CCCCN)c2c1`, the EC50 in the data set on Plasmodium falciparum [1] worked out at 78.6 nM; in the data set on Plasmodium falciparum [2], 22.3 nM. The CC50 in data set [3] is above 10000 nM.
For `CC1CNC(c2ccc(NC(=O)c3ccc(C(=O)Nc4ccc(C5=NC(C)CN5)cc4)c(N)c3)cc2)=N1` (stereo not given), in that order: 47 nM, 22.2 nM and above 10000 nM.
Take `Brc1ccc(C=Cc2cc[n+](Cc3ccccc3)cc2)cc1`: the EC50 stood at 139 nM with Plasmodium falciparum [1] and 103 nM in the data set with Plasmodium falciparum [2]. Half-maximal cytotoxicity in data set [3] (CC50) was put at 47300 nM.
On to `CCCCC(=O)NC(c1ccccc1)c1ccc2cccnc2c1O` (stereo not given), for which the results for the EC50 in the data set on Plasmodium falciparum [1] and with Plasmodium falciparum [2] were 387 nM and 239 nM, respectively. This molecule also gave a cytotoxic concentration (CC50) in data set [3] above 100000 nM.
As to `CCc1c(C)c(C#N)c2nc3ccccc3n2c1NCc1ccccc1`, the EC50 worked out at 787 nM in the data set on Plasmodium falciparum [1] and 238 nM in the data set with Plasmodium falciparum [2]. Besides, in data set [3], the CC50 was above 100000 nM.
For `O=[N+]([O-])c1cc(C(F)(F)F)ccc1N1CCCN(C(=S)Nc2cccc(C(F)(F)F)c2)CC1`, in that order: 149 nM, 130 nM and 55000 nM.
For `CCCCCCn1c(=O)c(C(=O)NCC[N+](CC)(CC)CC)c(O)c2ccccc21`, the concentration giving a half-maximal response (EC50) stood at 506 nM with Plasmodium falciparum [1] and 236 nM in the data set on Plasmodium falciparum [2]. The same molecule showed a cytotoxic concentration (CC50) in data set [3] above 100000 nM.
`CCOC(=O)C1=C(C)NC2=C(C(=O)C(C(=O)OCC)C(c3ccccc3OC)C2)C1c1sccc1C` (stereo not given): the results for the half-maximal effective concentration (EC50) in the data set with Plasmodium falciparum [1] and in the data set with Plasmodium falciparum [2] were 984 nM and 235 nM, respectively. In addition, the 50% cytotoxic concentration (CC50) in data set [3] was above 100000 nM.
For `Oc1ccc(-c2ccccc2)cc1CNC1CCCCC1`, in that order: 982 nM, below 23.5 nM and above 10000 nM.
For `N#Cc1ccc(CNC(=S)Nc2cc(Cl)ccc2Cl)cc1`, in that order: 421 nM, 238 nM and above 100000 nM.
With `CCc1nc2nc(C)cc(Nc3ccc4c(c3)OCCO4)n2n1`, the figures for the EC50 with Plasmodium falciparum [1] and in the data set on Plasmodium falciparum [2] were 360 nM and 219 nM, respectively. In addition, the CC50 in data set [3] was above 100000 nM.
For `CCOc1ccc(-c2c[n+](-c3ccccc3)c3n2CCS3)cc1`, in that order: 421 nM, 228 nM and above 100000 nM.
Turning to `Cc1onc(-c2ccccc2)c1C(=O)N1CCC(CNc2c(-c3ccoc3)nc3ccccn23)CC1`, the EC50 in the data set on Plasmodium falciparum [1] is 1760 nM; in the data set with Plasmodium falciparum [2], 225 nM. In data set [3], this molecule gave a half-maximal cytotoxic concentration (CC50) of 96600 nM.
For `OCc1nc2ccccc2n1CCOc1ccccc1`, in that order: above 1250 nM, 23.3 nM and above 10000 nM.
For `COc1ccc(-n2c(COc3cccc4ccccc34)nnc2SC)cc1`, in that order: 524 nM, 236 nM and above 100000 nM.
`Cc1nc2c(c(C)nn2C)c(C)c1CCC(=O)N1CCCC1`: the results for the EC50 in the data set on Plasmodium falciparum [1] and in the data set on Plasmodium falciparum [2] were 360 nM and below 15.8 nM, respectively. The molecule also came in with a cytotoxic concentration (CC50) in data set [3] above 6850 nM.
With `COc1cc2c(cc1OC)C1=NC(=O)C(C(C)C)N1C(SCc1csc(Cl)n1)=N2` (stereo not given), the figures for the EC50 in the data set with Plasmodium falciparum [1] and in the data set with Plasmodium falciparum [2] were above 1420 nM and 31.6 nM, respectively. In addition, in data set [3], the 50% cytotoxic concentration (CC50) is 14300 nM.
For `O=C(NC1CC1)c1ccc(OC2CCN(CC3CCCCC3)CC2)c(Cl)c1`, in that order: 119 nM, 50.3 nM and 22600 nM.
For `CCSc1ccc2ccccc2[n+]1CC`, in that order: 179 nM, 227 nM and above 100000 nM.
For `CCOC(=O)C1=C(C)NC2=C(C(=O)C(C(=O)OCC)C(c3ccccc3OC)C2)C1c1cccs1` (stereo not given), in that order: 1830 nM, 241 nM and above 100000 nM.
With `Oc1ccc(-c2cccnc2)cc1CNCC1CC2C=CC1C21CC1` (stereo not given), the results for the concentration for a half-maximal effect (EC50) in the data set with Plasmodium falciparum [1] and with Plasmodium falciparum [2] were 835 nM and below 23.3 nM, respectively. The half-maximal cytotoxic concentration (CC50) in data set [3] is above 10000 nM.
For `COC(=O)CC(NS(=O)(=O)c1ccc(OC)cc1)c1ccc2c(c1)OCO2` (stereo not given), in that order: 1460 nM, below 23.4 nM and above 10300 nM.
For `Oc1ccc(-c2ccc3c(c2)OCO3)cc1CNC12CC3CC(CC(C3)C1)C2`, in that order: 832 nM, 225 nM and above 100000 nM.
Regarding `COc1ccc2c(c1OC)C(=O)N1c3ccccc3N=C(c3ccc(I)cc3)CC21` (stereo not given), the half-maximal effective concentration (EC50) with Plasmodium falciparum [1] is 416 nM; in the data set with Plasmodium falciparum [2], 223 nM. This molecule returned a cytotoxic concentration (CC50) in data set [3] above 100000 nM.
For `Cc1nc(N(C)c2ccc(C(C)C)cc2)c2c(C)c(C(=O)Nc3cc(C)on3)sc2n1`, in that order: 248 nM, 236 nM and above 100000 nM.
For `Cc1ccc(N(C)C(=O)CCNS(=O)(=O)c2cc(Br)cnc2N)cc1`, in that order: 1920 nM, 224 nM and above 100000 nM.

What is called EC50 is the concentration needed to bring the measured effect to its halfway point. As usually defined, the CC50 is the concentration that lowers cell viability or growth by half. Higher therefore signals lower toxicity to the cells.
